Literature values as cited in article PMC6138493 (British Journal of Clinical Pharmacology, 2018).

Settings: after intravenous administration; ref Onasch et al. 24

Elimination half‐life of DA in plasma: a few minutes
SMILES: NCCc1ccc(O)c(O)c1 [DA, dopamine]
